# Measurements as given in patent US9884832B2 (priority 2011, dated 2018).
# Target: AM2 S31 (wild-type serine at position 31 in the M2 protein), influenza virus A/Udorn/72 (Influenza A virus, UniProt P0DOF5)
# Assay: cell-based
# Details: 100 uM; Xenopus oocytes; activity range class; read-out: S31 OOcyte Inhibition at 100 uM (%)
# AM2 S31 (wild-type serine at position 31 in the M2 protein), influenza virus A/Udorn/72, sequence (P0DOF5 whole entry, looked up): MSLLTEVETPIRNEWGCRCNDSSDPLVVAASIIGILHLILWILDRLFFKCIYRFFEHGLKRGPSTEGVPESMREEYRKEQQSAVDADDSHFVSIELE
row,SMILES,inhibition at 100 µM [%]
1,"c1scc2[nH]c(CNC34CC5CC(CC(C5)C3)C4)nc12 [Example 171a, Adamantan-1-yl-(1H-thieno[3,4-d]imidazol-2-ylmethyl)-amine]",0 to 30
2,"Cn1c(CNC23CC4CC(CC(C4)C2)C3)cc2sccc21 [Example 172a, Adamantan-1-yl-(4-methyl-4H-thieno[3,2-b]pyrrol-5-ylmethyl)-amine]",0 to 30
3,"Clc1cc2cc(CNC34CC5CC(CC(C5)C3)C4)sc2s1 [Example 173a, Adamantan-1-yl-(5-chloro-thieno[2,3-b]thiophen-2-ylmethyl)-amine]",31 to 95
4,Cc1csc2sc(CNC34CC5CC(CC(C5)C3)C4)c(C)c12 [Example 176a],0 to 30
5,"Cc1c(CNC23CC4CC(CC(C4)C2)C3)sc2ccccc12 [Example 177a, Adamantan-1-yl-(3-methyl-benzo[b]thiophen-2-ylmethyl)-amine]",31 to 95
6,CC(NC12CC3CC(CC(C3)C1)C2)c1cc2ccccc2s1 (stereo not drawn) [Example 178a],31 to 95
7,Oc1ccc2[nH]c(CNC34CC5CC(CC(C5)C3)C4)cc2c1 [Example 179a],0 to 30
8,"Cn1c(CNC23CC4CC(CC(C4)C2)C3)nc2ccccc21 [Example 180a, Adamantan-1-yl-(1-methyl-1H-benzoimidazol-2-ylmethyl)-amine]",0 to 30
9,"Clc1ccc2[nH]c(CNC34CC5CC(CC(C5)C3)C4)nc2c1 [Example 181a, Adamantan-1-yl-(5-chloro-1H-benzoimidazol-2-ylmethyl)-amine]",0 to 30
10,COc1ccc2[nH]c(CNC34CC5CC(CC(C5)C3)C4)cc2c1 [Example 182a],0 to 30
11,"Clc1cccc2cc(CNC34CC5CC(CC(C5)C3)C4)sc12 [Example 183a, Adamantan-1-yl-(7-chloro-benzo[b]thiophen-2-ylmethyl)-amine]",31 to 95
12,"Cc1cccc2nc(CNC34CC5CC(CC(C5)C3)C4)[nH]c12 [Example 184a, Adamantan-1-yl-(7-methyl-1H-benzoimidazol-2-ylmethyl)-amine]",0 to 30
13,"COc1ccc2cc(CNC34CC5CC(CC(C5)C3)C4)sc2c1 [Example 185a, N-((6-methoxybenzo[b]thiophen-2-yl)methyl)adamantan-1-amine]",0 to 30
14,"COc1ccc2cc(CNC34CC5CC(CC(C5)C3)C4)[nH]c2c1 [Example 186a, N-((6-methoxy-1H-indol-2-yl)methyl)adamantan-1-amine]",0 to 30
15,"OC12CC3CC(C1)CC(NCc1cccs1)(C3)C2 [Example 187a, 3-[(Thiophen-2-ylmethyl)-amino]adamantan-1-ol]",0 to 30
16,"OC12CC3CC(C1)CC(NCc1ccc(Br)s1)(C3)C2 [Example 188a, 3-[(5-Bromo-thiophen-2-ylmethyl)-amino]adamantan-1-ol]",0 to 30
17,"OC12CC3CC(C1)CC(NCc1ccc(Cl)s1)(C3)C2 [Example 189a, 3-[(5-Chloro-thiophen-2-ylmethyl)-amino]adamantan-1-ol]",0 to 30
18,"COC(=O)c1ccc(-c2ccc(CNC34CC5CC(CC(O)(C5)C3)C4)cc2)cc1 [Example 190a, 4′-[(3-Hydroxy-adamantan-1-ylamino)-methyl]-biphenyl-4-carboxylic acid methyl ester]",0 to 30
19,"OC12CC3CC(C1)CC(NCc1ccc(-c4ccccc4)s1)(C3)C2 [Example 191a, 3-[(5-Phenyl-thiophen-2-ylmethyl)-amino]adamantan-1-ol]",0 to 30
20,"OC12CC3CC(C1)CC(NCc1cc4sccc4s1)(C3)C2 [Example 192a, 3-[(Thieno[3,2-b]thiophen-2-ylmethyl)-amino]-adamantan-1-ol]",0 to 30
21,"C[Si](C)(C)c1ccc(CNC23CC4CC(CC(O)(C4)C2)C3)cc1 [Example 193a, (1s,3r,5R,7S)-3-((4-(trimethylsilyl)benzyl)amino)adamantan-1-ol]",0 to 30
